Active and inactive are the calls of the source.
Experiments:
Assay type in all cases: functional, cell-based
[1] = test system: MDA-MB-435; assay: Growth inhibition of human MDA-MB-435 cells at 1 uM after 48 hrs by sulforhodamine B assay
[2] = test system: UACC-257; assay: Growth inhibition of human UACC257 cells at 1 uM after 48 hrs by sulforhodamine B assay
[3] = test system: NCI-H23; assay: Growth inhibition of human NCI-H23 cells at 1 uM after 48 hrs by sulforhodamine B assay
[4] = test system: K562; assay: Growth inhibition of human K562 cells at 1 uM after 48 hrs by sulforhodamine B assay
[5] = test system: NCI-H322M; assay: Growth inhibition of human […] cells at 1 uM after 48 hrs by sulforhodamine B assay
[6] = test system: NCI/ADR-RES; assay: Growth inhibition of human NCI/ADR-RES cells at 1 uM after 48 hrs by sulforhodamine B assay
[7] = test system: T47D; assay: Growth inhibition of human T47D cells at 1 uM after 48 hrs by sulforhodamine B assay
[8] = test system: SF530; assay: Growth inhibition of human SF530 cells at 1 uM after 48 hrs by sulforhodamine B assay
[9] = test system: HT-29; assay: Growth inhibition of human HT-29 cells at 1 uM after 48 hrs by sulforhodamine B assay
[10] = test system: HL-60; assay: Growth inhibition of human HL-60(TB) cells at 1 uM after 48 hrs by sulforhodamine B assay
[11] = test system: SK-MEL-28; assay: Growth inhibition of human SK-MEL-28 cells at 1 uM after 48 hrs by sulforhodamine B assay
[12] = test system: IGROV-1; assay: Growth inhibition of human IGROV1 cells at 1 uM after 48 hrs by sulforhodamine B assay
[13] = test system: SW-620; assay: Growth inhibition of human SW620 cells at 1 uM after 48 hrs by sulforhodamine B assay
[14] = test system: CAKI-1; assay: Growth inhibition of human Caki1 cells at 1 uM after 48 hrs by sulforhodamine B assay
[15] = test system: SK-MEL-2; assay: Growth inhibition of human SK-MEL-2 cells at 1 uM after 48 hrs by sulforhodamine B assay
[16] = test system: U-251; assay: Growth inhibition of human U251 cells at 1 uM after 48 hrs by sulforhodamine B assay
[17] = test system: MDA-MB-468; assay: Growth inhibition of human MDA-MB-468 cells at 1 uM after 48 hrs by sulforhodamine B assay
[18] = test system: Hs-578T; assay: Growth inhibition of human Hs 578T cells at 1 uM after 48 hrs by sulforhodamine B assay
[19] = test system: NCI-H460; assay: Growth inhibition of human NCI-H460 cells at 1 uM after 48 hrs by sulforhodamine B assay
[20] = test system: HCT-116; assay: Growth inhibition of human HCT116 cells at 1 uM after 48 hrs by sulforhodamine B assay
[21] = test system: UO-31; assay: Growth inhibition of human UO31 cells at 1 uM after 48 hrs by sulforhodamine B assay
[22] = test system: MDA-MB-231; assay: Growth inhibition of human MDA-MB-231 cells at 1 uM after 48 hrs by sulforhodamine B assay
[23] = test system: CCRF-CEM; assay: Growth inhibition of human CCRF-CEM cells at 1 uM after 48 hrs by sulforhodamine B assay
[24] = test system: BT-549; assay: Growth inhibition of human BT549 cells at 1 uM after 48 hrs by sulforhodamine B assay
[25] = test system: RPMI-8226; assay: Growth inhibition of human RPMI8226 cells at 1 uM after 48 hrs by sulforhodamine B assay
[26] = test system: KM12; assay: Growth inhibition of human KM12 cells at 1 uM after 48 hrs by sulforhodamine B assay
[27] = test system: OVCAR-8; assay: Growth inhibition of human OVCAR8 cells at 1 uM after 48 hrs by sulforhodamine B assay
[28] = test system: A549; assay: Growth inhibition of human A549 cells at 1 uM after 48 hrs by sulforhodamine B assay
[29] = test system: SF-268; assay: Growth inhibition of human SF268 cells at 1 uM after 48 hrs by sulforhodamine B assay
[30] = test system: OVCAR-3; assay: Growth inhibition of human OVCAR-3 cells at 1 uM after 48 hrs by sulforhodamine B assay
[31] = test system: RXF 393; assay: Growth inhibition of human RXF393 cells at 1 uM after 48 hrs by sulforhodamine B assay
[32] = test system: HOP-92; assay: Growth inhibition of human HOP92 cells at 1 uM after 48 hrs by sulforhodamine B assay
[33] = test system: SF-295; assay: Growth inhibition of human SF295 cells at 1 uM after 48 hrs by sulforhodamine B assay
[34] = test system: DU-145; assay: Growth inhibition of human DU145 cells at 1 uM after 48 hrs by sulforhodamine B assay
[35] = test system: TK-10; assay: Growth inhibition of human TK10 cells at 1 uM after 48 hrs by sulforhodamine B assay
[36] = test system: ACHN; assay: Growth inhibition of human ACHN cells at 1 uM after 48 hrs by sulforhodamine B assay
[37] = test system: EKVX; assay: Growth inhibition of human EKVX cells at 1 uM after 48 hrs by sulforhodamine B assay
[38] = test system: COLO 205; assay: Growth inhibition of human COLO205 cells at 1 uM after 48 hrs by sulforhodamine B assay
[39] = test system: OVCAR-4; assay: Growth inhibition of human OVCAR4 cells at 1 uM after 48 hrs by sulforhodamine B assay
[40] = test system: MCF7; assay: Growth inhibition of human MCF7 cells at 1 uM after 48 hrs by sulforhodamine B assay
[41] = test system: A498; assay: Growth inhibition of human A498 cells at 1 uM after 48 hrs by sulforhodamine B assay
[42] = test system: NCI-H522; assay: Growth inhibition of human NCI-H522 cells at 1 uM after 48 hrs by sulforhodamine B assay
[43] = test system: HOP-62; assay: Growth inhibition of human HOP62 cells at 1 uM after 48 hrs by sulforhodamine B assay
[44] = test system: MOLT-4; assay: Growth inhibition of human MOLT4 cells at 1 uM after 48 hrs by sulforhodamine B assay
[45] = test system: SR; assay: Growth inhibition of human SR cells at 1 uM after 48 hrs by sulforhodamine B assay
[46] = test system: UACC-62; assay: Growth inhibition of human UACC62 cells at 1 uM after 48 hrs by sulforhodamine B assay
[47] = test system: HCC 2998; assay: Growth inhibition of human HCC2998 cells at 1 uM after 48 hrs by sulforhodamine B assay
[48] = test system: SN12C; assay: Growth inhibition of human SN12C cells at 1 uM after 48 hrs by sulforhodamine B assay
[49] = test system: SNB-75; assay: Growth inhibition of human SNB75 cells at 1 uM after 48 hrs by sulforhodamine B assay
[50] = test system: Malme-3M; assay: Growth inhibition of human MALME-3M cells at 1 uM after 48 hrs by sulforhodamine B assay
[51] = test system: SK-MEL-5; assay: Growth inhibition of human SK-MEL-5 cells at 1 uM after 48 hrs by sulforhodamine B assay
[52] = test system: HCT-15; assay: Growth inhibition of human HCT15 cells at 1 uM after 48 hrs by sulforhodamine B assay
[53] = test system: SF-539; assay: Growth inhibition of human SF539 cells at 1 uM after 48 hrs by sulforhodamine B assay
[54] = test system: PC-3; assay: Growth inhibition of human PC3 cells at 1 uM after 48 hrs by sulforhodamine B assay
[55] = test system: LOX IMVI; assay: Growth inhibition of human LOXIMVI cells at 1 uM after 48 hrs by sulforhodamine B assay
[56] = test system: NCI-H226; assay: Growth inhibition of human NCI-H226 cells at 1 uM after 48 hrs by sulforhodamine B assay
[57] = test system: 786-0; assay: Growth inhibition of human 786-0 cells at 1 uM after 48 hrs by sulforhodamine B assay
[58] = test system: M14; assay: Growth inhibition of human M14 cells at 1 uM after 48 hrs by sulforhodamine B assay

Measured: growth inhibition (GI)

Nc1ncnc2c1N=C1c3ccccc3CCC1C(c1ccc(Cl)cc1)N2 (stereo unspecified)
active: all assays above

Nc1ncnc2c1N=C1c3ccccc3CCC1C(c1ccccc1)N2 (stereo unspecified)
active: all assays above
